Columns and labels:
[1] = system: stress ulcer formation; test: WIS: Restraint and Water Immersion Stress-Induced Ulcer Inhibition Test; type: in vivo, male Crj:SD or Slc:SD rats; conditions: 100 mg/kg oral, 10 min before 7 h restraint and water immersion (21° C.), SD rats
Procedure: WIS: Restraint and Water Immersion Stress-Induced Ulcer Inhibition Test
The degree of inhibition of the stress ulcer formation is tested.
Male Crj:SD or Slc:SD rats (6 to 7-week-old) were fasted overnight, but allowed free access to water. Each group has 5 to 8 of these rats. The sample compound was dissolved or suspended in an aqueous solution of 0.3% sodium carboxymethylcellulose or 0.05% Tween 80 and then was orally administered (100 mg/10 ml/kg). To a control group, the vehicle was administered. 10 minutes later, the rats were placed in a stress cage and immersed to the level of xipfoid process in a water bath (21° C.) for 7 hours. At the end of the stress, the rats were sacrificed by inhalation of ether or carbon dioxide. Then, the stomach of each was removed, inflated by injecting 10 ml of 5% formalin neutral buffer solution, and immersed in 1% formalin neutral buffer solution for 30 minutes or more to be fixed. The stomach was incised along the greater curvature and then the length of each erosion in the glandular portion was determined under dissecting microscope. The sum of the length of erosions per stomach was defined as ulcer index (UI).
The effect obtained when 100 mg/kg of the sample compound had been administered was expressed as ulcer formation inhibitory rate (%) as follows:
ulcer formation inhibitory rate (%)=(1-(UI in sample group/UI in control

[2] = system: isolated gastric fundic gland (histamine-stimulated acid secretion); test: CAP: Acid Secretion Inhibition Test In Vitro ([14C]-aminopyrine uptake); type: cell-based, male Japanese White rabbit; conditions: Oryctolagus cuniculus, 40 min, final concentration 10^-5 M, histamine 10^-5 M, 37° C., read-out: CAP: acid secretion inhibitory rate
Procedure: CAP: Acid Secretion Inhibition Test In Vitro
The acid secretion inhibitory activity in a cell level is studied. It can also be used for studying the mechanism of the effect. […]
ii-a) Preparation of isolated gastric fundus gland suspension
First, an isolated gastric fundic gland sample was prepared. Namely, a male Japanese White rabbit (2.5 to 3 kg) was anesthetized to death with Nembutal™ and then the abdomen was incised. Immediately thereafter, the stomach was removed and, after its pyloric and cardiac antrum were severed, incised along its greater curvature into two sheets. […]
Into 70 ml of the nutrient solution containing 1 mg/ml of collagenase, minced mucosal pieces were dispersed and intensely stirred in a conical flask with a stirrer at 37° C. for 40 to 60 minutes. During this period, 100% O2 was sprayed on the nutrient solution surface and the pH was appropriately measured such that it was immediately adjusted to pH 7.4, when the value was therebelow, with a base. […] The number of cells was counted under microscope and adjusted to 1.6×10^6 cells/ml. […]
Then, [^14 C]-aminopyrine uptake test was performed. […] The gland pellet was completely dried as the tube with its lid being opened was kept for one night in a drying oven at 80° C. and then the lid was closed and the weight was determined at room temperature. […]

[3] = MTT: Cell Damaging and Protecting Effect Test; type: cell-based, male Japanese White rabbit; conditions: rabbit, gastric corpus mucosa cells, final concentration 10^-4 M, 37° C., smaller value is better, read-out: MTT: cell damaging rate
Excerpt: MTT: Cell Damaging and Protecting Effect Test
It is confirmed that there is no toxicity in cell level. Those having a toxicity in cell level are inappropriate as an anti-ulcer drug.
A male Japanese White rabbit (2.5 to 3 kg) was anesthetized to death by Nembutal™ and, immediately thereafter, its stomach was removed. The greater curvature of the stomach was incised so as to remove the stomach contents therefrom. After the mucosal surface was washed with HBSS (Hanks' Balanced Salt Solution), the stomach in ice-cooled HBSS was transferred to a laboratory. […]
The sample compound was dissolved in DMSO so as to attain a concentration of 10^-2 M and then diluted with HBSS containing 2% of Ultrocer G™ so as to attain a final concentration of 10^-4 M. To each group, which 8 wells were used for, 10 μl of MTT reagent was added immediately after 100 μl of the medium in each well was exchanged for same volume of the resulting solution of the sample compound. […] Then, the absorbance (OD: 570 to 630) was measured by a microplate reader. […]
The cell damaging or cell protecting effect of the sample compound at the final concentration of 10^-4 M was expressed as cell damaging rate (%) as follows:
cell damaging rate (%)=(1-(absorbance in sample group/absorbance in control […]

| Compound | WIS: ulcer formation inhibitory rate [1] [%] | inhibition at 10 µM [2] [%] | cytotoxicity at 4 h, 100 µM [3] [%] |
| --- | --- | --- | --- |
| CC(C)Cc1cc(C(=O)NCCCOc2cccc(CN3CCCCC3)c2)ccc1OCc1ccc(F)cc1 [Example 1] | 55 | 104 | -3 |
| CC(C)=CCC/C(C)=C/COc1ccc(C(=O)NCCCOc2cccc(CN3CCCCC3)c2)cc1 [Example 2] | 62 | 102 | 49 |
